# Reference: patent US20180071280A1, “MODULATORS OF CELL DEATH PROCESSES” (URIFER LTD., priority 2015, published 2018)
# Counter-ions that a name gives are not always drawn.
# Assays:
# [1] = system: triple negative breast carcinoma MDA-MB-231 (MDA); test: MultiTox-Fluor cytotoxicity assay in MDA-MB-231 cells; format: cell-based, human; settings: 24-72 h
# Procedure: (§1) Cell lines (HCT116, ht29, Rko, Hep3B, SW48, SW620, MDA-MB-231, PANC-1, su.86.86, Hfb) were obtained from the American Type Culture Collection (ATCC). Cell type authentication was carried out by microscope and DNA profiles using short tandem repeat analysis. Cells were grown in Minimum Essential Medium (MEM) containing 10% heat-inactivated Fetal Bovine Serum (FBS) or in Dulbecco's Modified Eagle's Medium (DMEM) containing 10% FBS, where specified, at 37° C. with 5% CO2. In general, the in-vitro experiments were carried out with 2. μM 0260 added into the growth medium. Dose response experiments included increasing 0260 concentrations. Cell death levels were determined using the MultiTox-Fluor Multiplex Cytotoxicity Assay (G9201, Promega, USA). In brief, 10,000 cells were seeded in black bottom 96 wells plate and were allowed to attach to the plate bottom for 16 h before the administration of various 0260 concentration in each well. Cell death levels were determined according to the manufacturer's protocol.
# (§2) Cells death level was determined using the MultiTox-Fluor Multiplex Cytotoxicity Assay (G9201, Promega, USA) according to the manufacturer's protocol.
# [2] = system: su.86.86 (pancreatic cancer cells derived from metastatic site-liver); test: Cytotoxicity dose response in su.86.86 cells; format: cell-based, human; settings: 24 h, 48 h, 72 h
# Procedure: as §1, §2
# [3] = system: SW620 cells; test: TEM analysis of mitochondria in SW620 cells; format: cell-based, human
# Procedure: Cells were grown in MEM or DMEM, washed twice with PBS and fixed for 5 minutes in Karnovsky fixative (2.5% glutaraldehyde, 2.5% paraformaldehyde in cacodylate buffer pH 7.4) on the tissue culture plate. Cells were then harvested, and transferred to 1.5 ml tube for further 1 h fixation at room temperature. The cells were then stored O.N at 4C° after which the samples were washed in 0.1 M cacodylate buffer and post-fixed with 1% OsO4 in 0.1 M sodium cacodylate buffer (Sigma-Aldrich, Israel) for 1 h. Samples were then dehydrated in alcohol and propylene oxide followed by embedding in Agar Mix. Thin sections (60 nm) were cut, stained with uranyl acetate and lead citrate, and observed in a FEI Tecnai transmission electron microscope.
# [4] = system: CC cells; test: Mitochondrial membrane potential (TMRE) in CC cells; format: cell-based, human; settings: malignant cells
# Procedure: (§3) For microscopic and ELISA based analyses of cells MMP, Tetra-Methyl-Rhodamine-Ethyl ester (TMRE) incorporation assay was carried out according to the manufacturer's instructions (Abcam, USA).
# [5] = system: Hfb; test: Mitochondrial membrane potential (TMRE) in normal human cells; format: cell-based
# Procedure: as §3
# [6] = system: Electron Transport Chain (ETC) complex I; test: ETC Complex I activity assay in SW620 cells; format: cell-based, human
# Procedure: SW620 cells were treated with 0260 for 4-22 h and the Complex I activity was determined for each period on incubation using the Complex I Enzyme Activity Microplate Assay Kit (Colorimetric) according to the manufacturer's instructions (ab109721).
# [7] = target: FLT3 (FMS-like tyrosine kinase 3) (Homo sapiens, UniProt P36888); test: Kinase panel assay, FLT3; format: biochemical; settings: above threshold
# Procedure: Kinase panel assays were performed using the FRET-based Z′-LYTE, Lantha Screen and Adapta enzymatic kinase assay systems (Life Technologies, Carlsbad, Calif.), which were carried out using the SelectScreen Kinase Profiling Service (Life Technologies). The standard reaction contained 2 μM peptide substrate, ATP at the optimal assay concentration, 50 mM HEPES (pH 7.5), 0.01% Brij-35, 10 mM MgCl2, 1 mM EGTA, and the tested kinase. Each kinase was checked for its activity in duplicate data points (n=2) and was assayed following the detailed procedures outlined in the SelectScreen service. Percent inhibition or ATP displacement (For Lantha screen) represent a ratio of phosphorylated/ATP bound product formed in the presence of the compound compared with phosphorylated/ATP bound product formed in reactions containing 1% DMSO.
# Kinome technique was used for monitoring phosphorylation events and phosphorylation targets of 0260-Fer interaction, using peptide arrays for human targets and phosphorylation-specific antibodies. Construction of peptide arrays relied on information from phosphorylation databases. The following proteins were determined as significant above the threshold of 40% kinase activity inhibition or ATP displacement to the Kinase domain site.
# [8] = target: Fer (Homo sapiens, UniProt P16591); test: Immunoprecipitation of Fer from 0260 treated SW620 CC cells; format: binding; parameters: endogenous in cells; host or cells: SW620 colon carcinoma cells
# Procedure: Protein lysates (1 mg) were prepared from tissues of adult mice according to previously described protocol, including incubation with Protein A Sepharose (GE Healthcare) to avoid nonspecific binding. Protein lysates were incubated with specific antibodies diluted 1:100 overnight at 4° C. Antigen-antibody complexes were precipitated with Protein A Sepharose, washed twice in PBS and eluted in Sample Buffer (2% SDS, 1% DTT 0.02% bromophenol blue 10% glycerol, 12.5 mM EDTA, 50 mM Tris-HCl pH 6.8) at room temperature for 10 min and at 100° C. for 8 min. Eluates were separated on SDS-PAGE and visualized by WB using specific antibodies.
# To examine the effect of 0260 micellar formulation on Fer in malignant cells, the kinase was immuno-precipitated from untreated and from 0260 treated SW620 CC cells.
# Sequence of FLT3 (FMS-like tyrosine kinase 3) (P36888 27-993): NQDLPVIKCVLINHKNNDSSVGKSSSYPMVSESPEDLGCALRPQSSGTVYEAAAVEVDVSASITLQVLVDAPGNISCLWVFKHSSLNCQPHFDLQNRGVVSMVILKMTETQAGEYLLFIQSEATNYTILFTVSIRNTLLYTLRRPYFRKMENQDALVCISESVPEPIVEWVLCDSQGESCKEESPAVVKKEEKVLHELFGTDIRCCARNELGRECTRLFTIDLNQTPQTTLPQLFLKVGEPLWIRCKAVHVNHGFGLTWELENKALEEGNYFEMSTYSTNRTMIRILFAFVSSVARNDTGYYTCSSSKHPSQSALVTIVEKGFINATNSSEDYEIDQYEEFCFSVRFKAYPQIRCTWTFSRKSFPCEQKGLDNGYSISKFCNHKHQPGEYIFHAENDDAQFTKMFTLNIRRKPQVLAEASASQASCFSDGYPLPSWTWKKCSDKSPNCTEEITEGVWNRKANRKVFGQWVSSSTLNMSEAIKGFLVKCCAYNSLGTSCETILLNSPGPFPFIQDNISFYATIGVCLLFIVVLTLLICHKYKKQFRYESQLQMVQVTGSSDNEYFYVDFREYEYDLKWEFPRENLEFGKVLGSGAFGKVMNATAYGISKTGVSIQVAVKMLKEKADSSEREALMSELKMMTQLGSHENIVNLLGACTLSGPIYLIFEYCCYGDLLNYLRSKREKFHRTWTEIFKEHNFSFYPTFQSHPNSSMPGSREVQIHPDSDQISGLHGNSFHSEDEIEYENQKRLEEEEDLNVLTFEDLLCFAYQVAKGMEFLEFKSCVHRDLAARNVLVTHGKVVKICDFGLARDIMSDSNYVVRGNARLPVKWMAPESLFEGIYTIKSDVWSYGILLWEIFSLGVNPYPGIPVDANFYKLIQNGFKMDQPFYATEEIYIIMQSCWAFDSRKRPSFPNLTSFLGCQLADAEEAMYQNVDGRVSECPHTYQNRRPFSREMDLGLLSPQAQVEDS
# Sequence of Fer (P16591 whole entry): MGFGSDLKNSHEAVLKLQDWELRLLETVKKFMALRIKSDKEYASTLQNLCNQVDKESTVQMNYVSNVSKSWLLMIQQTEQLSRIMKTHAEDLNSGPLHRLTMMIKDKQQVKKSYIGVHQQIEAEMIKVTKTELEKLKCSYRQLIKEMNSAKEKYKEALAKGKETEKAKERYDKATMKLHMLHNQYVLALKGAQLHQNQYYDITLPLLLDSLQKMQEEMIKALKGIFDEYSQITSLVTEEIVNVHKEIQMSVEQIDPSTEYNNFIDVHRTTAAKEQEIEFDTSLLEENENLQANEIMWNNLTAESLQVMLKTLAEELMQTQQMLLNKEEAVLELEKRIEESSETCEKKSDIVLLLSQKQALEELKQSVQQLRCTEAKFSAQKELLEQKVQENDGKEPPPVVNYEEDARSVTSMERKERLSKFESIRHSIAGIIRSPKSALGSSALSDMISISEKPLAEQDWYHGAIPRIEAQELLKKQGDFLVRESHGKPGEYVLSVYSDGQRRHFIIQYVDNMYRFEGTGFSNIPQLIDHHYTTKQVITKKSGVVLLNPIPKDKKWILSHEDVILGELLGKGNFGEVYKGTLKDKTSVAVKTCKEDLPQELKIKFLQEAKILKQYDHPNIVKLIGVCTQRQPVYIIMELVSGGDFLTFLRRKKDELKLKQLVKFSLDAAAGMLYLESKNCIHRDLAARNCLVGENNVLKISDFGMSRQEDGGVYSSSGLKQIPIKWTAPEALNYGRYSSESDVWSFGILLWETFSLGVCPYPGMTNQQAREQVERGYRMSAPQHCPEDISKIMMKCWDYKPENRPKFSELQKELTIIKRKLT
compound,measurement,setting,value
"CC(C)c1ccc(-c2cn3nc(N4CCC(CN5CCN(C)CC5)CC4)sc3n2)cc1 [compound 0260, tartarate salt of 6-(4-isopropyl-phenyl)-2-{4-[(4-methyl-piperazin-1-yl)methyl]piperidin-1-yl}-imidazo [2,1-b][1,3,4]thiadiazole]",concentration efficient in inducing cell death,[1],≤ 1.5 µM
same,sensitivity of Su.86.86 relative to PANC-1 cells,[2],more sensitive
same,mitochondria morphology (TEM),[3]; 16 h,deformation and loss of the normal elongated shape of mitochondria
same,mitochondria morphology (TEM),[3]; 24 h,the mitochondria underwent lysis
same,mitochondria morphology (TEM),"[3]; 24 h, high glucose conditions",mitochondrial damage was still observed
same,Mitochondrial Membrane Potential (MMP),[4],depolarization
same,Mitochondrial Membrane Potential (MMP) depolarization,[5],absent
same,Complex I activity,"[6]; SW620, 4 h post treatment",inhibited
same,Complex I activity (remaining),"[6]; SW620, 16 h",around 55%
same,Complex I activity (remaining),"[6]; SW620, 22 hours",~35%
same,kinase activity inhibition or ATP displacement,[7],> 40%
same,IP of Fer by antibodies toward the N-terminal tail,[8],did not disable the IP of Fer
